{"source": "paper PMC10223284", "about": "“Category-Based Toxicokinetic Evaluations of Data-Poor Per- and Polyfluoroalkyl Substances (PFAS) using Gas Chromatography Coupled with Mass Spectrometry” (Toxics, 2023)", "key": {"human plasma [1]": {"system": "human plasma"}, "in vitro": {"experiment": "in vitro", "conditions": "both, human, plasma"}, "human primary cells": {"system": "human primary cells", "conditions": "cited from earlier work"}, "human plasma [2]": {"system": "human plasma", "conditions": "for PPB_Stab_Fail / % remaining_PPB: plasma"}, "[3]": {"experiment": "Hepatic metabolic stability (hepatocyte clearance) assay, substrate depletion", "type": "in vitro ADME, human", "conditions": "both sexes, human, hepatocytes", "in_short": "(§1)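 Pooled 50-donor human cryopreserved hepatocytes (50,000 cells/100 μL) incubated with 1 μM compound at 37 °C with shaking. Parent loss quantified against internal standards over time to T240 in triplicate; T½ and Clint (μL/min/million cells) from ln concentration vs time, corrected for abiotic loss in cell-free and inactivated-hepatocyte controls.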"}, "[4]": {"system": "pooled human cryopreserved primary hepatocyte suspensions", "experiment": "Hepatic metabolic stability (hepatocyte clearance) assay, substrate depletion", "type": "in vitro ADME", "in_short": "as §1"}, "[5]": {"experiment": "In vitro-in vivo extrapolation (IVIVE) to Css and administered equivalent dose (AED)", "design": "species or system human", "in_short": "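Measured plasma protein binding (fup) and hepatocyte Clint served as IVIVE inputs to estimate human steady-state plasma concentration (Css). fup was converted to blood unbound fraction using blood:plasma partitioning, and Clint was scaled to whole-liver clearance (L/h). AEDs were derived by combining Css with published in vitro lowest-observed effective concentrations.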"}, "[6]": {"experiment": "Abiotic loss in negative controls of the hepatocyte clearance assay (cell-free media, metabolically inactivated hepatocytes)", "type": "in vitro ADME", "in_short": "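Test compound at 1 μM incubated at 37 °C with shaking in complete William's medium E, either cell-free or with metabolically inactivated hepatocytes, then quenched with ice-cold acetonitrile for quantitative analysis.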"}, "[7]": {"conditions": "flag for stability failure in hepatocyte clearance assay controls (1 or Fst = fail, 0 = pass)"}}, "note": "Where “and” joins values, the source holds several entries; their conditions need not be identical. Identical values can stand only once. Like-named read-outs stand apart in the source and are kept apart here."}
{"compound": "OCC(F)(F)OC(F)(F)C(F)(F)OC(F)(F)CO", "note": "[1H,1H,8H,8H-Perfluoro-3,6-dioxaoctane-1,8-diol]", "values": [{"measurement": "Aqueous Fraction, Run-specific Avg", "setting": "human plasma [1]; both, human, 5 h, 10 μM", "result": 1857.99}, {"measurement": "Fup.Med", "setting": "human plasma [1]; both, human, 5 h, 10 μM", "result": 0.191}, {"measurement": "Fup.point", "setting": "human plasma [1]; both, human, 5 h, 10 μM", "result": 0.207}, {"measurement": "fup", "setting": "human plasma [1]; both, human, 5 h, 10 μM", "result": 0.2069}, {"measurement": "fraction unbound at 5 h, 10 μM", "setting": "in vitro; Fraction Unbound (fu)", "result": 0.188}, {"measurement": "fraction unbound at 5 h, 10 μM", "setting": "in vitro; Fraction Unbound (fu), Run-specific Avg", "result": 0.21}, {"measurement": "fraction unbound at 5 h, 10 μM", "setting": "in vitro; Mean Fu", "result": 0.207}, {"measurement": "fraction unbound at 5 h, 10 μM", "setting": "in vitro; Mean fu", "result": 0.207}, {"measurement": "LOEC", "setting": "human primary cells; BioSeek lowest-observed effect concentration used for AED", "result": 7.00, "unit": "µM"}, {"measurement": "LOEC", "setting": "human primary cells; minimum lowest-observed effect concentration, BioSeek platform", "result": 7, "unit": "µM"}, {"measurement": "Time 1 hr, Run-specific Avg", "setting": "human plasma [2]; both, human, 1 h, 10 μM", "result": 8416.46}, {"measurement": "Fstable.Med", "setting": "human plasma [2]; both, human, 5 h, 10 μM", "result": 0.999}, {"measurement": "Mean Stability", "setting": "human plasma [2]; both, human, 5 h, 10 μM", "result": 1.067}, {"measurement": "Stability (T5hr/ T1hr), Run-specific Avg", "setting": "human plasma [2]; both, human, 5 h, 10 μM", "result": 1.023}, {"measurement": "Time 5 hr, Run-specific Avg", "setting": "human plasma [2]; both, human, 5 h, 10 μM", "result": 8614.09}, {"measurement": "PPB_Stab_Fail", "setting": "human plasma [2]; both, human, 5 h, 10 μM", "result": 0}, {"measurement": "half-life at 1 μM", "setting": "[3]", "result": 3.44, "unit": "h"}, {"measurement": "hepatocyte CLint at 1 μM", "setting": "[3]; Bkgd Adj Clint", "result": 6.72, "unit": "µL/min/1e6 cells"}, {"measurement": "hepatocyte CLint at 1 μM", "setting": "[3]; Bkgd-Sub Clearance (µL/min/106 hepatocytes)", "result": 6.72, "unit": "µL/min/1e6 cells"}, {"measurement": "hepatocyte CLint at 1 μM", "setting": "[3]; Bkgd_adj_Clint", "result": 6.72, "unit": "µL/min/1e6 cells"}, {"measurement": "hepatocyte CLint at 1 μM", "setting": "[3]; In Vitro Clint", "result": 6.72, "unit": "µL/min/1e6 cells"}, {"measurement": "hepatocyte CLint at 1 μM", "setting": "[3]; Linear Regression Results, Best-Fit Values, Clearance", "result": 6.72, "unit": "µL/min/1e6 cells"}, {"measurement": "hepatocyte CLint at 1 μM", "setting": "[3]; Unadj Clint", "result": 6.72, "unit": "µL/min/1e6 cells"}, {"measurement": "hepatocyte CLint at 1 μM", "setting": "[3]; Unadj in vitro Clint", "result": 6.72, "unit": "µL/min/1e6 cells"}, {"measurement": "Linear Regression Results, Best-Fit Values, Slope", "setting": "[4]; hepatocyte time course", "result": -0.003361}, {"measurement": "Clint.1.Med", "setting": "[4]; human, s9", "result": 0}, {"measurement": "Css", "setting": "[5]; Assuming 1 mg/kg/day dose rate, BW 70 kg", "result": "0.13 mg/L and 0.43 uM"}, {"measurement": "Clhep", "setting": "[5]; IVIVE, hepatocyte Clint scaled to whole-liver clearance", "result": 20.549, "unit": "L/h"}, {"measurement": "AED", "setting": "[5]; administered equivalent dose from LOEC and Css", "result": 16.1536, "unit": "mg/kg/day"}, {"measurement": "Fub", "setting": "[5]; fub=fup/(B:P), Fub set to 1 if needed", "result": 0.3762}, {"measurement": "Css", "setting": "[5]; human steady-state plasma concentration, assuming 1 mg/kg/day dosage", "result": 0.43, "unit": "µM"}, {"measurement": "CLint", "setting": "[5]; scaled with HPGL 110 mill cells/g, Vl 1596 g", "result": 1179763, "unit": "µL/min"}, {"measurement": "No Cells BkgdCl, Clearance", "setting": "[6]; 1 μM", "result": 3.324}, {"measurement": "HT BkgdCl, Clearance", "setting": "[6]; both, human, 1 μM", "result": 0}, {"measurement": "Hep_Stab_Fail", "setting": "[6]; both, human, 120 min, 1 μM", "result": 0}, {"measurement": "half-life at 1 μM", "setting": "[6]; buffer", "result": 6.95, "unit": "h"}, {"measurement": "HT BkgdCl, Slope", "setting": "[6]; heat treated hepatocytes control, 0 vs 240 min", "result": -0.0009212}, {"measurement": "No Cells BkgdCl, Slope", "setting": "[6]; no cells control, 0 vs 240 min", "result": -0.00166}]}
{"compound": "C=C(C)C(=O)OCC(F)(F)C(F)(F)C(F)(F)F", "note": "[1H,1H-Perfluorobutyl methacrylate]", "values": [{"measurement": "Fup.Med", "setting": "human plasma [1]", "result": 0.716}, {"measurement": "Fup.point", "setting": "human plasma [1]", "result": 0.706}, {"measurement": "Fstable.Med", "setting": "human plasma [2]", "result": 0.0018}, {"measurement": "Unstable", "setting": "human plasma [2]", "result": "Y"}, {"measurement": "% remaining_PPB", "setting": "human plasma [2]; human", "result": 8, "unit": "%"}, {"measurement": "PPB_Stab_Fail", "setting": "human plasma [2]; human", "result": 1}, {"measurement": "Hep_Stab_Fail", "setting": "[6]; [7]", "result": 1}]}
{"compound": "C=C(C)C(=O)OCC(F)(F)C(F)(F)C(F)(F)C(F)(F)C(F)(F)C(F)(F)C(F)(F)F", "note": "[1H,1H-Perfluorooctyl methacrylate]", "values": [{"measurement": "Fup.Med", "setting": "human plasma [1]", "result": 0.0638}, {"measurement": "Fup.point", "setting": "human plasma [1]", "result": 0.0665}, {"measurement": "Mean fu", "setting": "human plasma [1]; human, plasma", "result": 0.1300}, {"measurement": "Fstable.Med", "setting": "human plasma [2]", "result": 0.042}, {"measurement": "Unstable", "setting": "human plasma [2]", "result": "Y"}, {"measurement": "% remaining_PPB", "setting": "human plasma [2]; human", "result": 49, "unit": "%"}, {"measurement": "PPB_Stab_Fail", "setting": "human plasma [2]; human", "result": 0}, {"measurement": "Hep_Stab_Fail", "setting": "[6]; [7]", "result": 1}]}
